Earlier results as cited in PMC5992566 (Nanomedicine, 2018).

Conditions: after a single parenteral dose

Half-life: 21 to 50 days
Structure (SMILES): C[C@H]1CO[C@@H]2Cn3cc(C(=O)NCc4ccc(F)cc4F)c(=O)c(O)c3C(=O)N12 [Cabotegravir, cabotegravir]
